Key:
AsPC-1 = assay: 14C-fucose binding to cells
Protocol: (§1) In a 12-well culture plate, 1×10^5 cells were seeded and cultured overnight, and ^14C-fucose (specific activity: 55 mCi/mmol) diluted with BSA-PBS at a concentration of 0-200 nM was added to the cells and cultured at 4° C. for 1 hr. The cells were washed with cold BSA-PBS, lysed by 1% Triton X100/PBS-0.25% trypsin, and the radioactivity of the ^14C-fucose bound to the cell membrane was measured (FIGS. 2 and 3).
In another experiment, in a 12-well culture plate, 2×10^5 cells were seeded and cultured overnight, 10 nmol of ^14C-fucose (specific activity: 55 mCi/mmol) were added to the cells either singly or together with 1 pmol of fucose, and cultured at 4° C. for 1, 3, or 24 hr. The cells under each condition were washed with cold BSA-PBS, lysed by 1% Triton X100/PBS-0.25% trypsin, and the radioactivity of the ^14C-fucose was measured (FIG. 4).

PANC-1 = assay: 14C-fucose binding to cells; conditions: 14C-fucose 0-200 nM, 4° C., 1 hr
Protocol: as §1

AsPC-1 cells = assay: Impact of excessive mannose on transfection efficiency of fucosylated liposomes (flow cytometry); assay type: cell-based; conditions: excessive amount of mannose
Protocol: Mannose is phosphorylated to mannose-6-phosphate by hexokinase, then converted to fructose-6 phosphate that is used in the glycolysis. However, 90% of the mannose taken into the body is excreted unchanged into urine within 30-60 min, and 99% of the remaining mannose is excreted within 8 hr.

[1] = Hematologic/biochemical analyses and adverse effects during the treatment period; assay type: in vivo, mouse
Protocol: In the preparation of subcutaneous model, AsPC-1 cells (2×10^6 cells) were seeded on the back side of a mouse (4-6 weeks old). Bioluminescence was measured from 0 to 4 days after injection, and the mice were randomly divided into multiple groups before starting the treatment. In vivo optical imaging was performed using Xenogen-IVIS-cooled […] optical system (Xenogen-IVIS). Bound CDD (such as CDDP in fucosylated liposomes) or free CDDP was in a dose of 2 mg/kg for each administration. Injection was performed twice in the first week, then twice in the second and third weeks. All the mice used […], sacrificed on the next day of the final injection prior to the final measurement of bioluminescence.
Samples were collected from mouse orbital venous plexus. In the table, WBC represents white blood cell count, RBC represents red blood cell, count, Hb represents hemoglobin concentration, PLT represents Platelet count, AST represents aspartate aminotransferase concentration, […], Bil represents bilirubin concentration, BS represents blood glucose, Cr represents creatinine concentration.
In pancreatic cancer model mice (AsPC-1), effects of suppression of tumor growth by CDDP, CDDP-encapsulated liposomes (F0), and CDDP-encapsulated liposomes (F50) were compared (FIG. 20). […] Tumor volumes were measured at 4, 8, 11, 15, 18 and 22 days after the transplant.

[2] = cited from earlier work

Structure (SMILES) | binding of 14C-fucose in competition with non-labeled fucose (AsPC-1; 4° C. for 1, 3, or 24 hr) | binding of fucose to cells (AsPC-1; 14C-fucose 0-200 nM, 4° C., 1 hr) | affinity of fucose binding (AsPC-1; AsPC-1 compared with PANC-1) | binding of fucose to cells (PANC-1) | impact on the transfection efficiency of fucosylated liposomes (AsPC-1 cells) | adverse effect ([1]; 1 mg of mannose for a mouse) | adverse effects (as shown in Table 5) ([1]; treatment period) | mannose taken into the body excreted unchanged into urine ([2]; within 30-60 min) | remaining mannose excreted ([2]; within 8 hr)
C[C@H](O)[C@@H](O)[C@@H](O)[C@H](O)C=O [fucose, L-fucose] | inhibited by non-labeled fucose | binds to AsPC-1 and PANC-1 via a receptor-like mechanism | affinity is higher in the fucosylated sugar chain high-producing cell line AsPC-1 | binds to AsPC-1 and PANC-1 via a receptor-like mechanism | – | – | – | – | –
O=C[C@@H](O)[C@@H](O)[C@H](O)[C@H](O)CO [mannose, D-mannose] | – | – | – | – | no apparent impact was observed | no apparent adverse effect was observed | does not have any adverse effects | 90% | 99%
